Assay results published in PubChem BioAssay AID1963986 (Molecular Pharmacology Branch, DTP, NCI, 2024).

System: 171881-019-R-J1-PDC tumor spheroid viability
Assay: Anticancer human tumor 171881-019-R-J1-PDC patient-derived invasive breast carcinoma cell line growth inhibition [PI3K]
Conditions: spheroids with HUVEC and MSC; for IC50: curve of first compound; for viability, T/C: stronger effect = lower value; active = viability on the fitted dose curve at most 10% of control; inactive = the rest
Source text: Combinatorial screen of targeted agents with the PI3K inhibitors inavolisib, alpelisib, duvelisib, and copanlisib in multi-cell type tumor spheroids
A high-throughput screen of multi-cell type tumor spheroids was designed to identify active combinations of targeted small molecules and PI3K pathway inhibitors. Complex spheroids include a stromal component modeled by human endothelial cells (HUVEC) and fibroblasts modeled by human mesenchymal stem cells (MSCs). The concentration ranges selected for each drug and investigational agent were based upon clinically achievable concentrations if the clinical Cmax of the agent was known.
Compounds. The drugs and investigational agents: inavolisib (NSC800729), alpelisib (NSC765974), duvelisib (NSC772469), copanlisib (NSC816437), ipatasertib (NSC767898), afuresertib (NSC778305), talazoparib (NSC767125), sapanisertib (NSC764658), selumetinib (NSC741078), tovorafenib (DAY101, NSC766906), vemurafenib (NSC761431), ravoxertinib (NSC781343), sotorasib (NSC818433), MRTX1133 (NSC 836407), abemaciclib (NSC 768073), palbociclib (NSC758247), venetoclax (NSC 766270), SY5609 (NSC837396), enzalutamide (NSC755605), and darolutamide (NSC825331), were obtained from the National Cancer Institute (NCI) Developmental Therapeutics Program Chemical Repository. The FDA-approved anticancer drug set is available from the NCI Developmental Therapeutics Program. […] The stock solutions were prepared in dimethyl sulfoxide (DMSO, Sigma-Aldrich, St. Louis, MO, cat. D2650) at 800-fold the tested concentration and stored at -70 degrees C prior to their use. All drugs and investigational agents were tested over a range starting from a high concentration at or near the clinical Cmax and decreasing in half-log increments. If the clinical Cmax for an agent had not been determined, the highest concentration tested was 10 microM.
Cell Culture. All cells were maintained in an incubator at 37 degrees C and 5% CO2 with 95% humidity. The PDC lines were cultured according to standard operating procedures established by the NCI PDMR (https://pdmr.cancer.gov/sops/default.htm). All PDCs were thawed and cultured in Matrigel-coated flasks prepared with a working solution of 1X Ham's F-12 nutrient mix, without supplementation (Invitrogen, Waltham, MA, cat. 11765054), 100 U/mL penicillin-streptomycin (Invitrogen, cat. 15140122), and 2.5% Matrigel (Corning Inc., Corning, NY, cat. 354248) for the first three passages. The 354836-022-R-J1-PDC, 475296-252-R-J1-PDC, and 997726-040-R-J2-PDC lines were cultured in 6A media, which includes advanced DMEM/F-12 (Thermo Fisher Scientific, cat. 12634028), 10 mM HEPES (Thermo Fisher Scientific, cat. 15630080), 1X GlutaMAX supplement (Thermo Fisher Scientific, cat. 35050061), 0.1 mg/mL primocin (InvivoGen, San Diego, CA, cat. ant-pm-2), 10% defined fetal bovine serum, heat inactivated (HyClone Laboratories Inc., Logan, UT, cat. SH30070.03HI), 50% L-WRN conditioned media (ATCC, cat. CRL-3276), 1.25 mM N-Acetyl-L-cysteine (Sigma-Aldrich, cat. A9165), 10 mM nicotinamide (Sigma-Aldrich, cat. N0636), 1X B-27 supplement (Thermo Fisher Scientific, cat. 17504044), 1X N-2 supplement (Thermo Fisher Scientific, cat. 17502048), and 10 microM Y-27632 dihydrochloride (Tocris Bioscience, Bristol, United Kingdom, cat. 1254). The 624824-186-R-J2-PDC line was cultured in 6C/Colon 1B media, which includes all 6A media components plus 50 ng/mL human EGF recombinant protein (Thermo Fisher Scientific, cat. PHG0311). […]

[1] = second compound 0.00316 µM, first compound 0.0316 µM
[2] = second compound 0.00316 µM, first compound 0.1 µM
[3] = second compound 0.01 µM, first compound 0.0316 µM
[4] = second compound 0.01 µM, first compound 0.1 µM
[5] = second compound 0.0316 µM, first compound 0.0316 µM
[6] = second compound 0.0316 µM, first compound 0.1 µM
[7] = second compound 0.1 µM, first compound 0.0316 µM
[8] = second compound 0.1 µM, first compound 0.1 µM
[9] = second compound 0.316 µM, first compound 0.0316 µM
[10] = second compound 0.316 µM, first compound 0.1 µM
[11] = second compound 1 µM, first compound 0.0316 µM
[12] = second compound 1 µM, first compound 0.1 µM
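Also: spheroids exposed to compound for 7 days before viability read.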
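For viability, T/C in this document: 100% = DMSO vehicle-treated spheroids.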

CC(=O)c1c(C)c2cnc(Nc3ccc(N4CCNCC4)cn3)nc2n(C2CCCC2)c1=O + CC(Nc1ccc2c(c1)OCCn1cc(N3C(=O)OCC3C(F)F)nc1-2)C(N)=O
> 100 nM: IC50 (second compound 0.00316 µM) | IC50 (second compound 0.01 µM) | IC50 (second compound 0.0316 µM)
< 0.316 nM: IC50 (second compound 0.1 µM) | IC50 (second compound 0.316 µM) | IC50 (second compound 1 µM)
inactive: viability, T/C (second compound 0.00316 µM, first compound 0.000316 µM) 85.7% | viability, T/C (second compound 0.00316 µM, first compound 0.001 µM) 85.3% | viability, T/C (second compound 0.00316 µM, first compound 0.00316 µM) 94.5% | viability, T/C (second compound 0.00316 µM, first compound 0.01 µM) 95.2% | viability, T/C [1] 100% | viability, T/C [2] 86.7% | viability, T/C (second compound 0.01 µM, first compound 0.000316 µM) 74.2% | viability, T/C (second compound 0.01 µM, first compound 0.001 µM) 82.3% | viability, T/C (second compound 0.01 µM, first compound 0.00316 µM) 78.5% | viability, T/C (second compound 0.01 µM, first compound 0.01 µM) 85.9% | viability, T/C [3] 89.2% | viability, T/C [4] 73% | viability, T/C (second compound 0.0316 µM, first compound 0.000316 µM) 50.3% | viability, T/C (second compound 0.0316 µM, first compound 0.001 µM) 58.7% | viability, T/C (second compound 0.0316 µM, first compound 0.00316 µM) 53.9% | viability, T/C (second compound 0.0316 µM, first compound 0.01 µM) 49.1% | viability, T/C [5] 64.5% | viability, T/C [6] 58.6% | viability, T/C (second compound 0.1 µM, first compound 0.000316 µM) 40.4% | viability, T/C (second compound 0.1 µM, first compound 0.001 µM) 42.6% | viability, T/C (second compound 0.1 µM, first compound 0.00316 µM) 42% | viability, T/C (second compound 0.1 µM, first compound 0.01 µM) 44.3% | viability, T/C [7] 47.7% | viability, T/C [8] 42.1% | viability, T/C (second compound 0.316 µM, first compound 0.000316 µM) 26.7% | viability, T/C (second compound 0.316 µM, first compound 0.001 µM) 27% | viability, T/C (second compound 0.316 µM, first compound 0.00316 µM) 28% | viability, T/C (second compound 0.316 µM, first compound 0.01 µM) 28% | viability, T/C [9] 30.8% | viability, T/C [10] 29% | viability, T/C (second compound 1 µM, first compound 0.000316 µM) 20.4% | viability, T/C (second compound 1 µM, first compound 0.001 µM) 20.4% | viability, T/C (second compound 1 µM, first compound 0.00316 µM) 24.1% | viability, T/C (second compound 1 µM, first compound 0.01 µM) 24.2% | viability, T/C [11] 27.8% | viability, T/C [12] 25.9%

CNC(=O)c1ccc(N2C(=S)N(c3ccc(C#N)c(C(F)(F)F)c3)C(=O)C2(C)C)cc1F + CC(Nc1ccc2c(c1)OCCn1cc(N3C(=O)OCC3C(F)F)nc1-2)C(N)=O
> 10000 nM: IC50 (second compound 0.00316 µM) | IC50 (second compound 0.01 µM)
3830 nM: IC50 (second compound 0.0316 µM)
< 31.6 nM: IC50 (second compound 0.1 µM) | IC50 (second compound 0.316 µM) | IC50 (second compound 1 µM)
inactive: viability, T/C [1] 82.6% | viability, T/C [2] 88% | viability, T/C (second compound 0.00316 µM, first compound 0.316 µM) 82.4% | viability, T/C (second compound 0.00316 µM, first compound 1 µM) 93.6% | viability, T/C (second compound 0.00316 µM, first compound 3.16 µM) 81% | viability, T/C (second compound 0.00316 µM, first compound 10 µM) 69.5% | viability, T/C [3] 75.1% | viability, T/C [4] 73.8% | viability, T/C (second compound 0.01 µM, first compound 0.316 µM) 77% | viability, T/C (second compound 0.01 µM, first compound 1 µM) 74.5% | viability, T/C (second compound 0.01 µM, first compound 3.16 µM) 78.3% | viability, T/C (second compound 0.01 µM, first compound 10 µM) 62.3% | viability, T/C [5] 55.2% | viability, T/C [6] 56.7% | viability, T/C (second compound 0.0316 µM, first compound 0.316 µM) 57% | viability, T/C (second compound 0.0316 µM, first compound 1 µM) 56.6% | viability, T/C (second compound 0.0316 µM, first compound 3.16 µM) 53.1% | viability, T/C (second compound 0.0316 µM, first compound 10 µM) 33.8% | viability, T/C [7] 39.1% | viability, T/C [8] 41.5% | viability, T/C (second compound 0.1 µM, first compound 0.316 µM) 38.1% | viability, T/C (second compound 0.1 µM, first compound 1 µM) 39.9% | viability, T/C (second compound 0.1 µM, first compound 3.16 µM) 38% | viability, T/C (second compound 0.1 µM, first compound 10 µM) 30.5% | viability, T/C [9] 28.2% | viability, T/C [10] 27.9% | viability, T/C (second compound 0.316 µM, first compound 0.316 µM) 25.2% | viability, T/C (second compound 0.316 µM, first compound 1 µM) 28.5% | viability, T/C (second compound 0.316 µM, first compound 3.16 µM) 24.8% | viability, T/C (second compound 0.316 µM, first compound 10 µM) 22.1% | viability, T/C [11] 20.8% | viability, T/C [12] 21.3% | viability, T/C (second compound 1 µM, first compound 0.316 µM) 24.9% | viability, T/C (second compound 1 µM, first compound 1 µM) 18.5% | viability, T/C (second compound 1 µM, first compound 3.16 µM) 20.1% | viability, T/C (second compound 1 µM, first compound 10 µM) 18.7%
